Like-named read-outs stand apart in the source and are kept apart here.
Experiments:
[1] = tested on: P. falciparum Dd2 (PfDd2) parasites; assay: 72 h SYBR Green growth inhibition, ABS P. falciparum Dd2 (Phillips Lab); type: cell-based, Plasmodium falciparum; conditions: Plasmodium falciparum
[2] = tested on: P. falciparum NF54^luc parasites; assay: 72 h SYBR Green growth inhibition, PfNF54^luc; type: cell-based; conditions: Plasmodium falciparum, 72 h SYBR Green assay, read-out: PfNF54^luc EC50
in vitro = in vitro ADME; conditions: human liver microsomes, 1 µM compound, 0.4 mg/mL protein
[3] = tested on: Dd2 PfATP4^P412L mutant clones; assay: 72 h SYBR Green growth inhibition, 2-selected Dd2 clones with PfATP4 P412L (Phillips Lab); type: cell-based, Plasmodium falciparum; conditions: for EC50: Plasmodium falciparum
Description: (§1) To confirm the MOA for the α-azacyclic acetamides against P. falciparum and to obtain potential information about whether or not they bind PfATP4 at an overlapping site with that of KAE609, we undertook resistance selections using PfDd2 parasites using the published cycling drug selection method. , α-Azacyclic acetamides 2 and 3 were chosen as representative examples of the pyrrole- and indole-based series, respectively. […] Additional cycles were performed at 20 × EC50, until resistant parasites were detected based on a fold change in EC50 compared to the parental clonal Dd2 line (Table S3). Resistant parasites were detected in the 2-selections in all 4 flasks after 4 pulses and for 3-selections in 3 flasks after 5 pulses. Clonal lines were generated from each flask, and one clone per flask was selected for WGS and EC50 determination (Tables S4 and S5). WGS analysis identified two single point mutations in PfATP4 that were not present in the original clonal Dd2 parasite line (Tables and S4). P412L was found in three of four flasks containing 2-selected resistance clones, and F917L was identified in all three flasks containing 3-selected clones and in the fourth flask containing 2-selected clones (Table S4). PfATP4 mutations identified by the WGS analysis in parasite lines were verified by PCR of the pfatp4 gene, followed by Sanger sequencing (Figures S5, S6 and Table S6). An additional protein coding gene (ribosomal protein S8e) was mutated in the 2-selections. However, this mutation was identified in only one of four sequenced clones and is therefore unlikely to be related to resistance to 2 (Figure S7). All three resistant clones derived from the 3-selections harbored an identical mutation in a gene (pfcpu) encoding a conserved protein of unknown function, which was absent in the parental line (Figure S8).
(§2) ABS P. falciparum 3D7, Dd2 or PfNF54^luc parasites (BEI resources) were cultured in RPMI 1640 medium (Millipore Sigma), supplemented with 25 mM HEPES, 0.5% Albumax-I (Thermo Scientific), 23 mM sodium bicarbonate, 92 μM hypoxanthine, and 10 μg/mL gentamicin sulfate at 37 °C, 5% CO2, using deidentified O^+ red blood cells (BioIVT) as previously described. − Growth inhibition assays were conducted in 96 well plate format using the SYBR Green or luciferase reporter assay depending on the strain with modifications as described , (see Supporting Information for a detailed description). Details for the luciferase reporter assay are described below under the BRRoK assay section.
(§3) EC50 and CC50 values were determined by nonlinear regression performed in GraphPad Prism Version 10. Unless otherwise specified, data were fitted to the log(inhibitor) vs response–variable slope with four parameters equation. […] For mutant cell lines and compound combinations where bottom plateau of zero growth was not reached, the bottom of the curve was defined at 0% based on background values obtained for parental Dd2 from the same study.
(§4) Resistant Dd2 parasites were selected using a high-pressure intermittent selection protocol using a previously described method. Selections were set up using 4 flasks per compound starting with approximately 3 × 10^9 parasites per flask (80 mL per flask, 4% hematocrit, 3% parasitemia at the beginning of each pulse, mostly ring-stage parasites via previous sorbitol synchronization. Pulse 1 and 2 (48 h) were conducted at 10xEC50, and subsequent pulses were conducted at 20xEC50. Parasites cleared within 48 h under these conditions. 3-Selections used a total of 4 pulses, while 2-selections required 5 pulses before resistant parasites emerged (Table S3). Culture media was replenished daily for a week after each pulse, then every 2 days with weekly replenishment of blood. Cultures were monitored by microscopy until recrudescence. Clonal parasites were obtained from each flask by limiting dilution and maintained in drug free RPMI-1640 media prior to being analyzed for EC50 shifts. […]

[4] = tested on: Dd2 PfATP4^F917L mutant clones; assay: 72 h SYBR Green growth inhibition, 2- or 3-selected Dd2 clones with PfATP4 F917L (Phillips Lab); type: cell-based, Plasmodium falciparum; conditions: for EC50: Plasmodium falciparum
Description: as §1, §2, §3, §4

[5] = tested on: PfDd2 parasites, 2- or 3-selected bulk cultures; assay: EC50 of bulk cultures after rounds of resistance selection; type: cell-based; conditions: Plasmodium falciparum, read-out: bulk culture EC50
Description: as §1
Resistant Dd2 parasites were selected using a high-pressure intermittent selection protocol using a previously described method. Selections were set up using 4 flasks per compound starting with approximately 3 × 10^9 parasites per flask (80 mL per flask, 4% hematocrit, 3% parasitemia at the beginning of each pulse, mostly ring-stage parasites via previous sorbitol synchronization. Pulse 1 and 2 (48 h) were conducted at 10xEC50, and subsequent pulses were conducted at 20xEC50. Parasites cleared within 48 h under these conditions. 3-Selections used a total of 4 pulses, while 2-selections required 5 pulses before resistant parasites emerged (Table S3). Culture media was replenished daily for a week after each pulse, then every 2 days with weekly replenishment of blood. Cultures were monitored by microscopy until recrudescence. Clonal parasites were obtained from each flask by limiting dilution and maintained in drug free RPMI-1640 media prior to being analyzed for EC50 shifts. Established clonal lines were aliquoted and stored at −80 °C after suspension in Glycerolyte 57 solution (Baxter Cat no 4A7831).

Dd2^P412L (PfATP4^P412L) = assay: Drug susceptibility assay for cross-resistance profiling (Fidock Lab), P412L; type: cell-based, Plasmodium falciparum; conditions: Table 3 data set; for EC50: Plasmodium falciparum, DD2, 15-selected line
[6] = tested on: P. falciparum NF54^luc parasites; assay: Luciferase reporter (LR) / BRRoK assay, PfNF54^luc; type: cell-based; conditions: Plasmodium falciparum, NF54, Hec50, 72 h
[7] = DD2, 72 h, read-out: PfDd2 EC50
[8] = DD2, read-out: EC50, 2-resistant Flask 2 Clone F9
[9] = DD2, read-out: EC50, 2-resistant Flask 3 Clone F5
[10] = DD2, read-out: EC50, 2-resistant Flask 4 Clone E10
[11] = DD2, read-out: EC50, 2-selected flask #3 clone F5
[12] = DD2, read-out: EC50, 2-resistant Flask 1 Clone B6
[13] = DD2, read-out: EC50, 3-resistant Flask 2 Clone D10
[14] = DD2, read-out: EC50, 3-resistant Flask 3 Clone D8
[15] = DD2, read-out: EC50, 3-resistant Flask 4 Clone B3
[16] = DD2, read-out: EC50, 3-selected flask #3 clone D8

| SMILES | EC50 [1, 7] | EC50 [2] | microsomal CLint (in vitro) | EC50 [3, 8] | EC50 [3, 9] | EC50 [3, 10] | EC50 [3, 11] | Fold EC50 change compared to WT Dd2, 2-selected flask #3 clone F5 [3] | EC50 [4, 12] | EC50 [4, 13] | EC50 [4, 14] | EC50 [4, 15] | EC50 [4, 16] | Fold EC50 change compared to WT Dd2, 3-selected flask #3 clone D8 [4] | EC50 (Dd2^P412L (PfATP4^P412L)) | EC50 fold-change vs Dd2-B2, Dd2^P412L (Dd2^P412L (PfATP4^P412L)) | EC50 [6] | further results |
| --- | --- | --- | --- | --- | --- | --- | --- | --- | --- | --- | --- | --- | --- | --- | --- | --- | --- | --- |
| Cc1ccnc(NC(=O)Cn2cccc2-c2nc(-c3ccccc3)cs2)c1 [compound 2, N-(4-methylpyridin-2-yl)-2-(2-(4-phenylthiazol-2-yl)-1H-pyrrol-1-yl)acetamide] | 0.83 ± 0.048 µM | 0.72 ± 0.019 µM | > 866 µL/min/mg | > 10 µM | > 10 µM | > 10 µM | 29 ± 6.1 µM | 35 fold | 9.6 ± 2 µM | > 10 µM | > 10 µM | > 10 µM | 14 ± 0.78 µM | 17 fold | 34 ± 1.3 µM | 89 fold | 0.47 ± 0.051 µM | EC50 ([1]; DD2, read-out: EC50, Dd2 Parent (clone B8)): 0.78 µM; EC50 ([5]; 2-selected Flask 1, after Pulse 3 (20×EC50)): 0.57 µM; EC50 ([5]; 2-selected Flask 1, after Pulse 4 (20×EC50)): 8.4 µM; EC50 ([5]; 2-selected Flask 2, after Pulse 3 (20×EC50)): 0.58 µM; EC50 ([5]; 2-selected Flask 2, after Pulse 4 (20×EC50)): > 10 µM; EC50 ([5]; 2-selected Flask 3, after Pulse 3 (20×EC50)): 1.1 µM; EC50 ([5]; 2-selected Flask 3, after Pulse 4 (20×EC50)): > 10 µM; EC50 ([5]; 2-selected Flask 4, after Pulse 3 (20×EC50)): 0.81 µM; EC50 ([5]; 2-selected Flask 4, after Pulse 4 (20×EC50)): 6.6 µM |
| Cc1nn(CCNC(=O)Cn2c(C)c(C#N)c3ccccc32)c(C)c1Cl [compound 3, N-(2-(4-chloro-3,5-dimethyl-1H-pyrazol-1-yl)ethyl)-2-(3-cyano-2-methyl-1H-indol-1-yl)acetamide] | 1.1 ± 0.072 µM | 0.94 ± 0.0027 µM | > 866 µL/min/mg | > 10 µM | > 10 µM | > 10 µM | 11 ± 1.8 µM | 10 fold | > 10 µM | > 10 µM | > 10 µM | > 10 µM | 28 ± 1.6 µM | 25 fold | 4.1 ± 0.45 µM | 7.6 fold | 0.72 ± 0.0031 µM | EC50 ([1]; DD2, read-out: EC50, Dd2 Parent (clone G9)): 0.99 µM; EC50 ([5]; 3-selected Flask 1, after Pulse 2 (10×EC50)): 0.72 µM; EC50 ([5]; 3-selected Flask 1, after Pulse 3 (20×EC50)): 1.2 µM; EC50 ([5]; 3-selected Flask 2, after Pulse 2 (10×EC50)): 0.84 µM; EC50 ([5]; 3-selected Flask 2, after Pulse 3 (20×EC50)): > 10 µM; EC50 ([5]; 3-selected Flask 3, after Pulse 2 (10×EC50)): 1 µM; EC50 ([5]; 3-selected Flask 3, after Pulse 3 (20×EC50)): > 10 µM; EC50 ([5]; 3-selected Flask 4, after Pulse 2 (10×EC50)): 1.1 µM; EC50 ([5]; 3-selected Flask 4, after Pulse 3 (20×EC50)): > 10 µM |

From publication PMC12476894, “Identification of α‑Azacyclic Acetamide-Based Inhibitors of P. falciparum Na^+ Pump (PfATP4) with Fast-Killing Asexual Blood-Stage Antimalarial Activity by Phenotypic Screening” (ACS Infectious Diseases, 2025)
